In US4912097A, “Novel 11 β-alkynylphenyl-10-nor-steroids” (Roussel Uclaf, priority 1986, dated 1990):
Like-named read-outs stand apart in the source and are kept apart here.

How the values were obtained:
[1] = test system: thymocytes of surrenalectomised rats; assay: Antiglucocorticoidal activity: incorporation of tritiated uridine in thymocytes treated with dexamethasone; assay type: cell-based, rat; conditions: for opposition to the dexamethasone-caused diminution of incorporation of tritiated uridine (in words) / inhibition at 1 µM / inhibition at 0.1 µM / inhibition at 0.01 µM: 5·10^-8 M dexamethasone; for inhibition at 1 µM / inhibition at 0.1 µM / inhibition at 0.01 µM: Rattus norvegicus, Thymocyte, read-out: % inhibition of the effect of Dexamethasone; for inhibition at 1 µM: product tested 10^-6 M; for inhibition at 0.1 µM: product tested 10^-7 M; for inhibition at 0.01 µM: product tested 10^-8 M
Method: The technique employed was derived from the method described by Daune et al in Molecular Pharmacology, Vol. 13, 948-955 (1977) "The relationship between glucocorticold structure and effects upon thymocytes", for the thymocytes of the mouse. The thymocytes of surrenalectomised rats were incubated at 37° C. for 3 hours in a nutrient medium containing 5·10^-8 M of dexamethasone, in the presence or absence of a product to be studied at different concentrations. One added tritiated uridine, and continued the incubation for one hour. The incubates were cooled and treated with a 5% solution of trichloroacetic acid. After filtration on Whatman GF/A paper, and washing three times with a 5% trichloroacetic acid solution, the radioactivity retained by the filter was determined.

[2] = molecular target: T1, Gluoccocorticoid Receptor of the Rat Thymus (Rattus norvegicus, UniProt P06536); assay: Relative bonding affinity (ARL), glucocorticoid receptor of the rat thymus; assay type: binding, rat (male Sprague Dawley EOPS); conditions: for relative bonding affinity (ARL), Glucocorticoid: displacement of tritiated dexamethasone
T1 construct: The thymuses were removed and homogenized at 0° C; from tissue; host or cells: thymus of adrenalectomised male Sprague Dawley rats; high-speed supernatant of the homogenate
T1 sequence (P06536 1-795): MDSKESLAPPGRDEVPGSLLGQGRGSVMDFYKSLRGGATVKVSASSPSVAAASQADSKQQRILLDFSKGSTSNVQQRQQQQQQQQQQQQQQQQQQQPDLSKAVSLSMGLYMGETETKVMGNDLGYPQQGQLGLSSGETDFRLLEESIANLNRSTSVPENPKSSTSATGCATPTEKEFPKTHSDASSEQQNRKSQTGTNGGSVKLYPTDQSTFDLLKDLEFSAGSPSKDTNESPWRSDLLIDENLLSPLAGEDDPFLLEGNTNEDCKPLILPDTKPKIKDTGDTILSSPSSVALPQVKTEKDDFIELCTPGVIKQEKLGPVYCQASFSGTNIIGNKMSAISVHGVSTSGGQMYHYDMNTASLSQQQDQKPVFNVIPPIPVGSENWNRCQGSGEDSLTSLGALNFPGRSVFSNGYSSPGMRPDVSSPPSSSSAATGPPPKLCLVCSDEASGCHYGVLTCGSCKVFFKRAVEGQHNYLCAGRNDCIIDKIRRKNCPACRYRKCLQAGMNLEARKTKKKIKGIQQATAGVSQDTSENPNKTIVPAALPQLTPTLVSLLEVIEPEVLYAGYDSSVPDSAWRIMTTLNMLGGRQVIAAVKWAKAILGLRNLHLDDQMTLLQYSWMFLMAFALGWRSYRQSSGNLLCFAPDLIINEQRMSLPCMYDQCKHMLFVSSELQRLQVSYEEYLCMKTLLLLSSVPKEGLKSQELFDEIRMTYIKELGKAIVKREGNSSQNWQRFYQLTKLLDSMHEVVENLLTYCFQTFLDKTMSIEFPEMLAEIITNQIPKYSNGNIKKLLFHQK
Method: (§1) Study of the activity upon the hormonal receptors.
Male Sprague Dawley EOPS rats of 160 to 200 g were surrenalectomised and 4 to 8 days after this ablation, the animals were sacrificed. The thymuses were removed and homogenized at 0° C. in a 10 mM Tris, 0.25M saccharose, 2 mM dithiothreitol, HCl pH 7.4 buffer with the aid of a Potter polytetrafluoroethylene dish (1 g of tissue per 10 ml of TS). The homogenate was then ultracentrifuged (105,000×90 mn) at 0° C. Aliquots of the supernatent fluid thus obtained were incubated at 0° for a period (t) with a constant concentration (T) of tritiated dexamethasone in the presence of increasing concentrations (0-2500. 10^-9 M) either of cold dexamethasone, or of cold product to be tested. The concentration of tritiated dexamethasone bound (B) was then measured in each incubate by the technique of adsorption on dextran charcoal.
(§2) The calculation of the relative bonding affinity (ARL) was identical for all the receptors.
(§3) The 2 curves were plotted as follows: the percentage of the tritiated hormone bound B/T as a function of the logarithm of the concentration of the reference hormone cold and B/T as a function of the logarithm of the concentration of the product tested cold.
(§4) The straight line of the equation I50 =(B/T max+B/T min)/2. B/T max=percentage of the tritiated hormone bound for one incubation of this tritiated hormone at the concentration (T) was determined. B/T min=percentage of the tritiated hormone bound for one incubation of this tritiated hormone at the concentration (T) in the presence of a great excess of the cold hormone (2500·10^-9 M).
(§5) The intersections of the straight line I50 and of the curves make it possible to estimate the concentrations of the cold reference hormone (CH) and of the cold product tested (CX) which inhibits 50% of the bonding of the tritiated hormone on the receptor. The relative affinity of the bonding (ARL) of the product tested was determined by the equation [formula]

[3] = test system: gestation in the rat; assay: Abortifacient activity in the rat; assay type: in vivo; conditions: 3 mg/kg orally on Day D 9 of gestation; sacrificed 72 hours after treatment
Method: Day D 1 of gestation was determined by the presence of spermatozoids in the vaginal smears and on Day D 9 of gestation, the product was administered orally in suspension in carboxymethyl cellulose containing 0.5% of Tween. The animals were sacrificed 72 hours after the treatment and the uterus was examined to determine the state of gestation.

[4] = molecular target: T2, Progestogen Receptor of the Rabbit Uterus (Oryctolagus cuniculus, UniProt P06186); assay: Relative bonding affinity (ARL), progestogen receptor of the rabbit uterus; assay type: binding; conditions: for relative bonding affinity (ARL), Progestogen: displacement of tritiated R
T2 construct: The uteruses were removed, weighed and homogenized at 0° C; from tissue; host or cells: uterus of non-adult, estradiol-treated rabbits; high-speed supernatant of the homogenate
T2 sequence (P06186 1-930): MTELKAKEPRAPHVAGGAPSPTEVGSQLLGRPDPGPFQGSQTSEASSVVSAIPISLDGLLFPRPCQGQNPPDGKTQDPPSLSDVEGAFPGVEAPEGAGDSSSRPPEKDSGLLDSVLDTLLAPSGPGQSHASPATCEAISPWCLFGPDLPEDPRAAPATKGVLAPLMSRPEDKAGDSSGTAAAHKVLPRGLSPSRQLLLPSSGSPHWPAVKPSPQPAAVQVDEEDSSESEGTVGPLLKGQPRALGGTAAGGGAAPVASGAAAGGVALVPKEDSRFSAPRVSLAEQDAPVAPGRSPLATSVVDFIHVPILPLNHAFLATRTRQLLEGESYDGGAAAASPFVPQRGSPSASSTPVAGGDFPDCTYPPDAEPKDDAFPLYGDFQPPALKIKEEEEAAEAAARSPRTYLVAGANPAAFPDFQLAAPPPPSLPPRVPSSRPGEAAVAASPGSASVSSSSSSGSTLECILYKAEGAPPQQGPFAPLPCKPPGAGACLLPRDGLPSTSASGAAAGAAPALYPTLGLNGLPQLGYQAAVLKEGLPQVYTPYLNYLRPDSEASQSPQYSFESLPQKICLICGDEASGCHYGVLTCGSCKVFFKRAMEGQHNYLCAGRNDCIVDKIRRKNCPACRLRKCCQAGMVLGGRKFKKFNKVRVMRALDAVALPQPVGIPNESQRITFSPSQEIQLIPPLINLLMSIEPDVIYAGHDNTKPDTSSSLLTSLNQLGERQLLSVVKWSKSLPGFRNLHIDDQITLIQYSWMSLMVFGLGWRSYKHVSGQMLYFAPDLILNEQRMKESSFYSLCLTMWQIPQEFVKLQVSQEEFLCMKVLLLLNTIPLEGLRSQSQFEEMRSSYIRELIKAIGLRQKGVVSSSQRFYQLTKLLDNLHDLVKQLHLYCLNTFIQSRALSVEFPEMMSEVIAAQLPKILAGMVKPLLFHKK
Method: as §1
Non-adult rabbits of about 1 kg are given a cutaneous application of 25 μg of estradiol and 5 days after this treatment, the animals were sacrificed. The uteruses were removed, weighed and homogenized at 0° C. with the aid of a Potter polytertrafluoroethylene dish in a buffered TS solution ([…], HCl pH 7.4) (1 g of tissue per 50 ml of TS). The homogenate was then ultracentrifuged (105,000 g×90 mm) at 0° C. Aliquots of the supernatent fluid thus obtained were incubated at 0° C. for a period (t) with a constant concentration (T) of tritiated Product R (17, 21-dimethyl-19-nor-Δ^-4,9 -pregnadien-3,20-dione) in the presence of increasing concentrations (0-2500. 10^-9 M) either of R cold, or of progesterone cold, or of the product to be tested cold. The concentration of tritiated R bound (B) was then measured in each incubate by the technique of adsorbtion on dextran charcoal.
as §2, §3, §4, §5

[5] = 37° C., 3 hours + 1 hour tritiated uridine

Row | Structure (SMILES) | incorporation of tritiated uridine (in words) ([1]; effect of glucocorticoid alone) | opposition to the dexamethasone-caused diminution of incorporation of tritiated uridine (in words) [1] | inhibition at 1 µM ([1]; symbol explained in footnote) [%] | inhibition at 0.1 µM [1, 5] [%] | inhibition at 0.01 µM [1, 5] [%] | affinity for the glucocorticoid receptor (in words) [2] | relative bonding affinity (ARL), Glucocorticoid ([2]; time of incubation at 0°: 4H) | relative bonding affinity (ARL), Glucocorticoid ([2]; time of incubation at 0°: 24H) | abortion (state of gestation) [3] | affinity for the progestogen receptor (in words) [4] | relative bonding affinity (ARL), Progestogen ([4]; time of incubation at 0°: 2H) | relative bonding affinity (ARL), Progestogen ([4]; time of incubation at 0°: 24H) | inhibition at 1 µM [1, 5] [%]
1 | C[C@@H]1C[C@H]2[C@@H]3CCC4=CC(=O)C=C[C@]4(C)[C@@]3(F)[C@@H](O)C[C@]2(C)[C@@]1(O)C(=O)CO [dexamethasone, reference compound] | cause a diminution of the incorporation of tritiated uridine | – | – | – | – | – | – | – | – | – | – | – | –
2 | C#Cc1ccc([C@H]2C[C@@]3(C)[C@@H](CC[C@@]3(O)C#CCl)[C@@H]3CCC4=CC(=O)CCC4=C32)cc1 [Example 5, 17α-(chloroethynyl)-11β-(4-ethynylphenyl)-Δ^4,9-estradien-17β-ol-3-one] | – | oppose this effect | 100 | 84 | 47 | very marked affinity | 84 | 153 | complete abortion in all the animals | very marked affinity | 51 | 325 | –
3 | C#Cc1ccc([C@H]2C[C@@]3(C)[C@@H](CC[C@@]3(O)C#CC)[C@@H]3CCC4=CC(=O)CCC4=C32)cc1 [Example 3, 11β-(4-ethynylphenyl)-17α-(1-propynyl)-Δ^4,9-estradien-17β-ol-3-one] | – | – | – | – | – | very marked affinity | 107 | 124 | complete abortion in all the animals | very marked affinity | 44 | 167 | –
4 | C#Cc1ccc([C@H]2C[C@@]3(C)[C@@H](CC[C@@]3(O)CC=C)[C@@H]3CCC4=CC(=O)CCC4=C32)cc1 [Example 4, 11β-(4-ethynylphenyl)-17α-allyl-Δ^4,9-estradien-17β-ol-3-one] | – | oppose this effect | – | 71 | 46 | very marked affinity | 65 | 57 | complete abortion in all the animals | very marked affinity | 41 | 124 | 99
5 | C#Cc1ccc([C@H]2C[C@@]3(C)[C@@H](CC[C@@]3(O)C#CCl)[C@@H]3CCC4=CC(=O)CC[C@]45O[C@]235)cc1 [Example 8, 17α-chloroethynyl-9α,10α-epoxy-11β-(4-ethynylphenyl)-17-Δ^4-estraen-17β-ol-3-one] | – | oppose this effect | – | 37 | 7 | very marked affinity | 175 | 233 | complete abortion in all the animals | very marked affinity | 38 | 285 | 77
